Laboratory results: PubChem BioAssay AID248 (DTP/NCI, 2004)
Where “and” joins values, the source holds several entries; their conditions need not be identical. Equal entries are not always repeated. Toxic doses and inconclusive results are not listed. Rule as the data show it: active = T/C of 150% or more; inactive = T/C below 125%.

Test system: L1210 leukemia ip in BDF1 mice, survival T/C
Assay: NCI In Vivo Anticancer Drug Screen. Data for tumor model L1210 Leukemia (intraperitoneal) in B6D2F1 (BDF1) mice
Conditions: endpoint: mean survival time, higher = longer survival
Outline: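 Mice bearing the transplanted tumor received compound or vehicle. Survival of the treated group was divided by that of the vehicle-treated control group to give the ratio.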

[1] = dose: 100.0 mg/kg/injection, schedule: Q01DX009 (ip), vehicle: saline with Tween-80
[2] = dose: 200.0 mg/kg/injection, schedule: Q01DX009 (ip), vehicle: saline with Tween-80
[3] = dose: 50.0 mg/kg/injection, schedule: Q01DX009 (ip), vehicle: Klucel (hydroxypropylcellulose) (HPC)
[4] = dose: 100.0 mg/kg/injection, schedule: Q01DX009 (ip), vehicle: Klucel (hydroxypropylcellulose) (HPC)
[5] = dose: 100.0 mg/kg/injection, schedule: Q04DX003 (ip), vehicle: Klucel (hydroxypropylcellulose) (HPC)
[6] = dose: 200.0 mg/kg/injection, schedule: Q01DX009 (ip), vehicle: Klucel (hydroxypropylcellulose) (HPC)
[7] = dose: 200.0 mg/kg/injection, schedule: Q04DX003 (ip), vehicle: Klucel (hydroxypropylcellulose) (HPC)
[8] = dose: 400.0 mg/kg/injection, schedule: Q01DX009 (ip), vehicle: Klucel (hydroxypropylcellulose) (HPC)
[9] = dose: 100.0 mg/kg/injection, schedule: Q04DX002 (ip), vehicle: saline
[10] = dose: 200.0 mg/kg/injection, schedule: Q04DX002 (ip), vehicle: saline
[11] = dose: 400.0 mg/kg/injection, schedule: Q04DX002 (ip), vehicle: saline
[12] = dose: 100.0 mg/kg/injection, schedule: Q04DX003 (ip), vehicle: saline with Tween-80
[13] = dose: 200.0 mg/kg/injection, schedule: Q04DX003 (ip), vehicle: saline with Tween-80
[14] = dose: 400.0 mg/kg/injection, schedule: Q04DX003 (ip), vehicle: saline with Tween-80

Measured: T/C

O=C(CCCCl)Oc1ccccc1
inactive: [1] 103 % of control | [2] 98 % of control

COc1ccc(C(C#N)N2CCOCC2)cc1 (configuration not stated)
inactive: [3] 92 % of control | [4] 93 % of control | [5] 96 % of control | [6] 96 % of control | [7] 91 % of control

CCOc1cc(/C=N/NC(=O)c2ccccc2NC(=O)c2ccccc2Cl)ccc1O
inactive: [4] 90 % of control | [6] 95 % of control | [8] 92 % of control

CSc1ncc(CO)c(NCc2ccco2)n1
inactive: dose: 100.0 mg/kg/injection, schedule: Q01DX001 (ip), vehicle: Klucel (hydroxypropylcellulose) (HPC) 98 % of control | dose: 200.0 mg/kg/injection, schedule: Q01DX001 (ip), vehicle: Klucel (hydroxypropylcellulose) (HPC) 98 % of control | dose: 400.0 mg/kg/injection, schedule: Q01DX001 (ip), vehicle: Klucel (hydroxypropylcellulose) (HPC) 98 % of control

CCN(CC)c1ccc(NCN2C(=O)c3ccccc3C2=O)c(C)c1
inactive: dose: 100.0 mg/kg/injection, schedule: Q04DX002 (ip), vehicle: saline with Tween-80 97 % of control | dose: 200.0 mg/kg/injection, schedule: Q04DX002 (ip), vehicle: saline with Tween-80 111 % of control

CCOC(=O)Oc1ccc(Br)cc1Br
inactive: dose: 100.0 mg/kg/injection, schedule: Q01DX001 (ip), vehicle: saline 104 % of control | dose: 100.0 mg/kg/injection, schedule: Q01DX009 (ip), vehicle: carboxymethylcellulose (CMC) 93 % of control and 96 % of control | [9] 99 % of control | dose: 100.0 mg/kg/injection, schedule: Q04DX003 (ip), vehicle: saline 103 % of control | dose: 200.0 mg/kg/injection, schedule: Q01DX001 (ip), vehicle: saline 102 % of control | dose: 200.0 mg/kg/injection, schedule: Q01DX009 (ip), vehicle: carboxymethylcellulose (CMC) 94 % of control and 97 % of control | [10] 92 % of control | dose: 200.0 mg/kg/injection, schedule: Q04DX003 (ip), vehicle: saline 95 % of control | dose: 400.0 mg/kg/injection, schedule: Q01DX001 (ip), vehicle: saline 104 % of control | dose: 400.0 mg/kg/injection, schedule: Q01DX009 (ip), vehicle: carboxymethylcellulose (CMC) 92 % of control and 93 % of control | [11] 104 % of control | dose: 400.0 mg/kg/injection, schedule: Q04DX003 (ip), vehicle: saline 102 % of control

CC(C)(COCOCC(C)(C)[N+](=O)[O-])[N+](=O)[O-]
inactive: [12] 100 % of control | [13] 103 % of control | [14] 100 % of control

C[n+]1cccc(C#N)c1
inactive: dose: 37.5 mg/kg/injection, schedule: Q04DX003 (ip), vehicle: saline 100 % of control | dose: 75.0 mg/kg/injection, schedule: Q01DX001 (ip), vehicle: saline 106 % of control | dose: 75.0 mg/kg/injection, schedule: Q04DX003 (ip), vehicle: saline 107 % of control | dose: 150.0 mg/kg/injection, schedule: Q01DX001 (ip), vehicle: saline 106 % of control | dose: 150.0 mg/kg/injection, schedule: Q04DX003 (ip), vehicle: saline 91 % of control

O=C(Cl)c1ccc(OC(Cl)(Cl)Cl)cc1
inactive: [5] 109 % of control | [6] 100 % of control | [7] 92 % of control | [8] 95 % of control | dose: 400.0 mg/kg/injection, schedule: Q04DX003 (ip), vehicle: Klucel (hydroxypropylcellulose) (HPC) 94 % of control

CN(C(=O)CCCO)c1cc([N+](=O)[O-])ccc1OCc1ccccc1
inactive: [1] 93 % of control | [12] 92 % of control | [2] 93 % of control | [13] 101 % of control | dose: 400.0 mg/kg/injection, schedule: Q01DX009 (ip), vehicle: saline with Tween-80 90 % of control | [14] 92 % of control

Cc1ccc(C)c2c(CC(=O)O)c[nH]c12
inactive: dose: 100.0 mg/kg/injection, schedule: Q01DX001 (ip), vehicle: saline with Tween-80 100 % of control | dose: 200.0 mg/kg/injection, schedule: Q01DX001 (ip), vehicle: saline with Tween-80 107 % of control | dose: 400.0 mg/kg/injection, schedule: Q01DX001 (ip), vehicle: saline with Tween-80 102 % of control

O=C(O)C(=O)c1ccc(-c2ccccc2)cc1
inactive: dose: 5.0 mg/kg/injection, schedule: Q01DX Z (ip), vehicle: carboxymethylcellulose (CMC) 102 % of control | dose: 10.0 mg/kg/injection, schedule: Q01DX Z (ip), vehicle: carboxymethylcellulose (CMC) 100 % of control | dose: 20.0 mg/kg/injection, schedule: Q01DX Z (ip), vehicle: carboxymethylcellulose (CMC) 94 % of control | dose: 40.0 mg/kg/injection, schedule: Q01DX Z (ip), vehicle: carboxymethylcellulose (CMC) 100 % of control | dose: 75.0 mg/kg/injection, schedule: Q01DX001 (ip), vehicle: carboxymethylcellulose (CMC) 101 % of control | dose: 150.0 mg/kg/injection, schedule: Q01DX001 (ip), vehicle: carboxymethylcellulose (CMC) 101 % of control

COc1cc(N(CCO)CCO)ccc1NC(=O)c1ccccc1
inactive: dose: 12.5 mg/kg/injection, schedule: Q01DX001 (ip), vehicle: carboxymethylcellulose (CMC) 93 % of control | dose: 12.5 mg/kg/injection, schedule: Q01DX009 (ip), vehicle: Klucel (hydroxypropylcellulose) (HPC) 104 % of control | dose: 12.5 mg/kg/injection, schedule: Q04DX003 (ip), vehicle: Klucel (hydroxypropylcellulose) (HPC) 97 % of control | dose: 25.0 mg/kg/injection, schedule: Q01DX001 (ip), vehicle: carboxymethylcellulose (CMC) 98 % of control | dose: 25.0 mg/kg/injection, schedule: Q01DX009 (ip), vehicle: Klucel (hydroxypropylcellulose) (HPC) 104 % of control | dose: 25.0 mg/kg/injection, schedule: Q04DX003 (ip), vehicle: Klucel (hydroxypropylcellulose) (HPC) 95 % of control | [3] 97 % of control | dose: 50.0 mg/kg/injection, schedule: Q04DX003 (ip), vehicle: Klucel (hydroxypropylcellulose) (HPC) 97 % of control

O=C(O)c1cc([N+](=O)[O-])ccc1O
inactive: dose: 100.0 mg/kg/injection, schedule: Q01DX001 (ip), vehicle: carboxymethylcellulose (CMC) 95 % of control | [9] 101 % of control | dose: 200.0 mg/kg/injection, schedule: Q01DX001 (ip), vehicle: carboxymethylcellulose (CMC) 95 % of control | [10] 101 % of control | [11] 101 % of control

CC(=O)OC1CCC2(C)C(=CCC3C2CCC2(C)C(c4cccc(=O)o4)CCC32)C1 (configuration not stated)
inactive: dose: 100.0 mg/kg/injection, schedule: Q01DX001 (sc), vehicle: steriod suspending solution 100 % of control | dose: 200.0 mg/kg/injection, schedule: Q01DX001 (sc), vehicle: steriod suspending solution 102 % of control | dose: 400.0 mg/kg/injection, schedule: Q01DX001 (sc), vehicle: steriod suspending solution 93 % of control

c1ccc(C23c4ccccc4C2c2ccccc23)nc1 (configuration not stated)
inactive: dose: 12.5 mg/kg/injection, schedule: Q01DX009 (ip), vehicle: gum acacia 104 % of control | dose: 25.0 mg/kg/injection, schedule: Q01DX009 (ip), vehicle: gum acacia 100 % of control | dose: 50.0 mg/kg/injection, schedule: Q01DX009 (ip), vehicle: gum acacia 100 % of control | dose: 100.0 mg/kg/injection, schedule: Q04DX003 (ip), vehicle: gum acacia 97 % of control | dose: 200.0 mg/kg/injection, schedule: Q04DX003 (ip), vehicle: gum acacia 97 % of control | dose: 400.0 mg/kg/injection, schedule: Q04DX003 (ip), vehicle: gum acacia 104 % of control
